Drawing on US11091447B2, “UBE2K modulators and methods for their use” (Berg LLC, priority 2020, dated 2021), this text covers IC50 for 49 molecules.

pIC50: −log10 of the molar value. Bounds are passed on as bounds.

The test system of one test is MIA PaCa-2 cells. Briefly: Cellular viability assay (Cell Titer Fluor). It counts as cell-based. Conditions: Homo sapiens, 72 hours incubation. Here is the method: Cell viability were performed using the Cell Titer Fluor™ Assays (Promega G6080). MIA PaCa-2 cells are grown in DMEM media with 10% FBS, 1% Pen/Strep/Amphotericin B. Cells are trypsinized and counted using the Nexcelom cellometer. 5,000 cells/100 μl are plated per well in Greiner black/clear 96-well plates. Cells should be within 10 passages of stock vial for use in workflow. Three distinct lineages of these cells are cultured in parallel for multiple passages and 5 full plates of each lineage are seeded for one run. Small molecule compounds are provided as 100 mM stock solutions in DMSO. Dilution series plates are prepared using 1:3 dilution to achieve a 7 point concentration on a half log scale. After addition of compounds, cells are incubated 37° C., 5% CO2 for 72 hours.
For each test compound condition, triplicate technical replicates are used. For each reference compound, duplicate technical replicates are used. At the end of the 72-hour incubation, spent media is discarded. Then, 100 μl of GF-AFC diluted in DMEM (serum and phenol red-free) is added at 1:2000 concentration (5 μl/10 ml). Cells are incubated with reaction buffer for 1 h at 37° C. Fluorescence is then read on the plate reader with excitation wavelength of 390 nm and emission wavelength of 505 nm. All raw data are analyzed on Microsoft Excel 2010 and normalized to the DMSO vehicle control. Relative results are copied into GraphPad Prism for non-linear regression analysis and determination of IC50 and other dose curve parameters (min, max, Hill slope, etc.) using the log (inhibitor) vs. response equation. Values are as follows: A represents an IC50 of <[…], B represents an IC50 of 1 mM to 10 mM, C represents an IC50 of >10 mM.
Take `COc1ccc(F)cc1-c1nc(CNC(=O)c2ccccc2OC(F)(F)F)n[nH]1` [Compound 127, N-((5-(5-fluoro-2-methoxyphenyl)-1H-1,2,4-triazol-3-yl)methyl)-2-(trifluoromethoxy)benzamide]: the pIC50 (in general, the negative decadic logarithm of the IC50, by convention in mol/L) was above 6.00.

Still in this test, the particulars now being: Homo sapiens, MIA PaCa-2, 72 h, 72 hours incubation.
Consider `N#Cc1ccc(N2CCCC2)c(C(=O)NCc2cc(-c3cccs3)[nH]n2)c1` [Compound 84], for which the pIC50 was 5.00 to 6.00.
Still for that read-out and setting: as for `N#Cc1ccc(N2CCCC(F)(F)C2)c(C(=O)NCc2cc(-c3cccs3)[nH]n2)c1` [Compound 85], the figure is above 6.00; as for `O=C(NCc1n[nH]c(-c2cccs2)n1)c1nccnc1N1CC(F)(F)C1` [Compound 86], below 5.00; as for `O=C(NCc1n[nH]c(-c2cccs2)n1)c1nccnc1N1CCC(F)(F)C1` [Compound 87, 3-(3,3-difluoropyrrolidin-1-yl)-N-((5-(thiophen-2-yl)-1H-1,2,4-triazol-3-yl)methyl) pyrazine-2-carboxamide], below 5.00.
For `O=C(NCc1cc(-c2cccs2)[nH]n1)c1cccnc1N1CC(F)(F)C1` [Compound 88], the pIC50 is below 5.00.
On the same count and under the same terms, as for `O=C(NCc1n[nH]c(-c2cccs2)n1)c1nccnc1N1CCC(F)(F)CC1` [Compound 89], the figure is below 5.00; as for `O=C(NCc1n[nH]c(-c2cccs2)n1)c1nccnc1N1CCCC(F)(F)C1` [Compound 90], below 5.00.
With `O=C(NCc1cc(-c2cc(F)ccc2O)[nH]n1)c1cc(F)ccc1N1CCCCC1` [Compound 91], the negative logarithm of the IC50 (pIC50) is above 6.00.
`CCOc1ccc(F)cc1-c1cc(CNC(=O)c2cc(F)ccc2N2CCCC2)n[nH]1` [Compound 92] showed a negative logarithm of the IC50 (pIC50) above 6.00.
Same read-out and setting: the result for `CC(C)Oc1ccc(F)cc1-c1cc(CNC(=O)c2cc(F)ccc2N2CCCCC2)n[nH]1` [Compound 93] reads above 6.00; that for `O=C(NCc1cc(-c2cccs2)[nH]n1)c1cc(F)ccc1N1CCCC1` [Compound 94], above 6.00.
On to `Cc1ccc(N2CCCC(F)(F)C2)c(C(=O)NCc2cc(-c3cccs3)[nH]n2)c1` [Compound 96], for which the negative logarithm of the IC50 (pIC50) is above 6.00.
Still for that read-out and setting: as for `Cc1cccc(C(=O)NCc2cc(-c3cccs3)[nH]n2)c1N1CCC(F)(F)C1` [Compound 97], the figure is 5.00 to 6.00; as for `CC(C)Oc1ccc(F)cc1-c1cc(CNC(=O)c2cc(F)ccc2N2CCCC2)n[nH]1` [Compound 98], above 6.00.
On to `CCOc1ccc(F)cc1-c1cc(CNC(=O)c2cc(F)ccc2N2CCCCC2)n[nH]1` [Compound 99], for which the pIC50 was above 6.00.
For the molecule `COc1ccccc1-c1cc(CNC(=O)c2cc(F)ccc2N2CCCCC2)n[nH]1` [Compound 100], the negative-log IC50 (pIC50) is above 6.00.
`O=C(NCc1cc(-c2ccccc2O)[nH]n1)c1cc(F)ccc1N1CCCCC1` [Compound 101] showed a negative logarithm of the IC50 (pIC50) above 6.00.
With `COc1ccccc1-c1cc(CNC(=O)c2ccccc2N2CCCCC2)n[nH]1` [Compound 102, N-((5-(2-methoxyphenyl)-1H-pyrazol-3-yl)methyl)-2-(piperidin-1-yl) benzamide], the pIC50 is above 6.00.
Regarding `O=C(NCc1cc(-c2cccs2)[nH]n1)c1ccccc1N1CCCCCC1` [Compound 103], the negative logarithm of the IC50 (pIC50) is above 6.00.
For `COc1ccccc1-c1cc(CNC(=O)c2cc(F)ccc2N2CCCC2)n[nH]1` [Compound 104], the negative-log IC50 (pIC50) was above 6.00.
Same read-out and setting: as for `COc1ccccc1-c1cc(CNC(=O)c2ccccc2N2CCCC2)n[nH]1` [Compound 105], the figure is above 6.00.
`COc1ccc(F)cc1-c1cc(CNC(=O)c2cc(F)ccc2N2CCCCC2)n[nH]1` [Compound 110] had a pIC50 above 6.00.
`COc1cccc(-c2cc(CNC(=O)c3ccccc3OC(F)(F)F)n[nH]2)c1OC` [Compound 114] showed a pIC50 below 5.00.
In turn, `CCCOc1ccc(F)cc1-c1cc(CNC(=O)c2ccccc2OC(F)(F)F)n[nH]1` [Compound 115] showed a pIC50 below 5.00.
On the same count and under the same terms, the result for `CC(C)Oc1ccc(F)cc1-c1cc(CNC(=O)c2ccccc2OC(F)(F)F)n[nH]1` [Compound 116] reads below 5.00.
In turn, `COc1ccc(-c2cc(CNC(=O)c3ccccc3OC(F)(F)F)n[nH]2)c(OC)c1` [Compound 117] showed a negative logarithm of the IC50 (pIC50) below 5.00.
For `COc1ccccc1-c1nc(C2(NC(=O)c3ccccc3OC(F)F)CC2)n[nH]1` [Compound 118, 2-(difluoromethoxy)-N-(1-(5-(2-methoxyphenyl)-1H-1,2,4-triazol-3-yl)cyclopropyl) benzamide], the negative logarithm of the IC50 (pIC50) was 5.00 to 6.00.
The molecule `COc1ccc(F)cc1-c1nc(CNC(=O)c2ccc3c(c2)OC(F)(F)O3)n[nH]1` [Compound 119] showed a pIC50 of 5.00 to 6.00.
`COc1ccccc1-c1nc(CNC(=O)c2ccc3c(c2)OC(F)(F)O3)n[nH]1` [Compound 120] showed a negative logarithm of the IC50 (pIC50) of 5.00 to 6.00.
The same measure, in the same setting: the result for `COc1ccccc1-c1cc(S(=O)(=O)NC(=O)c2ccccc2OC(F)F)n[nH]1` [Compound 121, 2-(difluoromethoxy)-N-((5-(2-methoxyphenyl)-1H-pyrazol-3-yl)sulfonyl) benzamide] reads below 5.00.
In the case of `COc1ccccc1-c1cc(S(=O)(=O)NC(=O)c2ccccc2OC(F)(F)F)n[nH]1` [Compound 122, N-[[5-(2-methoxyphenyl)-1H-pyrazol-3-yl]sulfonyl]-2-(trifluoromethoxy)benzamide], the pIC50 was below 5.00.
Molecule `COc1ccccc1-c1nc(S(=O)(=O)NC(=O)c2ccccc2OC(F)(F)F)n[nH]1` [Compound 123, N-((5-(2-methoxyphenyl)-1H-1,2,4-triazol-3-yl)sulfonyl)-2-(trifluoromethoxy) benzamide] showed a pIC50 of 5.00 to 6.00.
`COc1ccccc1-c1nc(S(=O)(=O)NC(=O)c2ccccc2OC(F)F)n[nH]1` [Compound 124, 2-(difluoromethoxy)-N-((5-(2-methoxyphenyl)-1H-1,2,4-triazol-3-yl)sulfonyl) benzamide]: the pIC50 is 5.00 to 6.00.
Same read-out and setting: the result for `COc1ccccc1-c1nc(CNC(=O)c2ccccc2OC(F)(F)F)n[nH]1` [Compound 125] reads above 6.00.
Still for that read-out and setting: the result for `COc1ccc(F)cc1-c1nc(CNC(=O)c2ccccc2OC(F)F)n[nH]1` [Compound 128] reads above 6.00.
On the same count and under the same terms, the result for `O=C(NCc1n[nH]c(-c2cc(F)ccc2O)n1)c1ccccc1OC(F)F` [Compound 129] reads above 6.00; that for `O=C(NCc1n[nH]c(-c2cc(F)ccc2O)n1)c1ccccc1OC(F)(F)F` [Compound 130], above 6.00; that for `COc1ccccc1-c1nc(CNC(=O)c2cccc3c2OC(F)(F)O3)n[nH]1` [Compound 132], above 6.00.
Turning to `COc1ccccc1-c1nc(CNC(=O)c2cc(F)ccc2OC(F)(F)F)n[nH]1` [Compound 134], the negative-log IC50 (pIC50) was above 6.00.
`COc1ccc(F)cc1-c1nc(CNC(=O)c2cccc(F)c2OC(F)F)n[nH]1` [Compound 135, 2-(difluoromethoxy)-3-fluoro-N-((5-(5-fluoro-2-methoxyphenyl)-1H-1,2,4-triazol-3-yl)methyl) benzamide]: the pIC50 was above 6.00.
For `COc1ccccc1-c1nc(CNC(=O)c2cccc(F)c2OC(F)F)n[nH]1` [Compound 136, 2-(difluoromethoxy)-3-fluoro-N-((5-(2-methoxyphenyl)-1H-1,2,4-triazol-3-yl)methyl) benzamide], the pIC50 is above 6.00.
As for `COc1ccccc1-c1nc(CNC(=O)c2cc(F)ccc2OC(F)F)n[nH]1` [Compound 138, 2-(difluoromethoxy)-5-fluoro-N-((5-(2-methoxyphenyl)-1H-1,2,4-triazol-3-yl)methyl) benzamide], the pIC50 is above 6.00.
With `COc1ccc(F)cc1-c1nc(CNC(=O)c2cc(C#N)ccc2OC(F)F)n[nH]1` [Compound 139], the pIC50 was above 6.00.
Molecule `COc1ccccc1-c1nc(CNC(=O)c2cc(C#N)ccc2OC(F)F)n[nH]1` [Compound 140] gave a pIC50 above 6.00.
The molecule `COc1ccc(F)cc1-c1nc(CNC(=O)c2cccnc2OC(F)F)n[nH]1` [Compound 143, 2-(difluoromethoxy)-N-((5-(5-fluoro-2-methoxyphenyl)-1H-1,2,4-triazol-3-yl)methyl) nicotinamide] showed a negative logarithm of the IC50 (pIC50) above 6.00.
On to `COc1ccccc1-c1nc(CNC(=O)c2cccnc2OC(F)F)n[nH]1` [Compound 144, 2-(difluoromethoxy)-N-((5-(2-methoxyphenyl)-1H-1,2,4-triazol-3-yl)methyl) nicotinamide], for which the pIC50 is above 6.00.
On to `COc1ccc(F)cc1-c1nc(CNC(=O)c2cnccc2OC(F)F)n[nH]1` [Compound 147], for which the negative logarithm of the IC50 (pIC50) was 5.00 to 6.00.
Consider `COc1ccccc1-c1nc(CNC(=O)c2cnccc2OC(F)F)n[nH]1` [Compound 148], for which the negative-log IC50 (pIC50) was 5.00 to 6.00.
